Blank lines part the entries; values can stand above or below the compound they belong to.
Tests used:
Format in all cases: biochemical
[1] = molecular target: T1, ABHD6 (Mus musculus, UniProt Q8R2Y0); test: In vitro competitive activity-based protein profiling (mouse), ABHD6; settings: for inhibition at 1 µM: mouse proteome, in vitro, read-out: % Inhibition at 1 μM ABHD6; for IC50: mouse brain membrane fraction or cell lysates, 30 min preincubation at 37° C, FP-Rh probe
T1 construct: Proteomes (mouse brain membrane fraction or cell lysates); from tissue; host or cells: mouse brain membrane fraction (or unspecified cell lysates)
T1 sequence (Q8R2Y0 1-336): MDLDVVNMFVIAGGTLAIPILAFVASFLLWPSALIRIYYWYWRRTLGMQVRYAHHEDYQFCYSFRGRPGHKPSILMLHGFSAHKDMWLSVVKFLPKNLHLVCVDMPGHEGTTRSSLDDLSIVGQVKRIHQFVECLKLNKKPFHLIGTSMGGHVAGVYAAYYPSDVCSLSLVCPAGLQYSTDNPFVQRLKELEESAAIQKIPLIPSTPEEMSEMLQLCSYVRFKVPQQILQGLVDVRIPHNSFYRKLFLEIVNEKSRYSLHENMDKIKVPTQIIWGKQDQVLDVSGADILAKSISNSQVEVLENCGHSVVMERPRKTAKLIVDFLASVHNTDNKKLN
Description: (§1) In Vitro Competitive Activity-Based Protein Profiling (Mouse).
(§2) Proteomes (mouse brain membrane fraction or cell lysates) (50 μL, 1.0 mg/mL total protein concentration) were preincubated with varying concentrations of inhibitors at 37° C. After 30 min, FP-Rh (1.0 μL, 50 μM in DMSO) was added and the mixture was incubated for another 30 min at 37° C. Reactions were quenched with SDS loading buffer (50 μL-4×) and run on SDS-PAGE.

[2] = molecular target: T2, MAGL (Mus musculus, UniProt O35678); test: In vitro competitive activity-based protein profiling (mouse), MAGL; settings: for inhibition at 1 µM: mouse proteome, in vitro, read-out: % Inhibition at 1 μM MAGL; for IC50: mouse brain membrane fraction or cell lysates, 30 min preincubation at 37° C, FP-Rh probe
T2 construct: Proteomes (mouse brain membrane fraction or cell lysates); from tissue; host or cells: mouse brain membrane fraction (or unspecified cell lysates)
T2 sequence (O35678 1-303): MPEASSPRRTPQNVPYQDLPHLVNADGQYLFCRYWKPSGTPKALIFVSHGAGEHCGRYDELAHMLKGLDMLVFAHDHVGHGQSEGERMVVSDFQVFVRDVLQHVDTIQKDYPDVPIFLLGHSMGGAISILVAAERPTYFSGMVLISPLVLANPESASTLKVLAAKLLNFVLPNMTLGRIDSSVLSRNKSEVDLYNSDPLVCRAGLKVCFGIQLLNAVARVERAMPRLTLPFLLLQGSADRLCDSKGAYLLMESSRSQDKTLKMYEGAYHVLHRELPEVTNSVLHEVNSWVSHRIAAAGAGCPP
Description: as §1, §2

[3] = molecular target: T3, FAAH (Mus musculus, UniProt O08914); test: In vitro competitive activity-based protein profiling (mouse), FAAH; settings: for inhibition at 1 µM: mouse proteome, in vitro; for IC50: mouse brain membrane fraction or cell lysates, 30 min preincubation at 37° C, FP-Rh probe
T3 construct: Proteomes (mouse brain membrane fraction or cell lysates); from tissue; host or cells: mouse brain membrane fraction (or unspecified cell lysates)
T3 sequence (O08914 1-579): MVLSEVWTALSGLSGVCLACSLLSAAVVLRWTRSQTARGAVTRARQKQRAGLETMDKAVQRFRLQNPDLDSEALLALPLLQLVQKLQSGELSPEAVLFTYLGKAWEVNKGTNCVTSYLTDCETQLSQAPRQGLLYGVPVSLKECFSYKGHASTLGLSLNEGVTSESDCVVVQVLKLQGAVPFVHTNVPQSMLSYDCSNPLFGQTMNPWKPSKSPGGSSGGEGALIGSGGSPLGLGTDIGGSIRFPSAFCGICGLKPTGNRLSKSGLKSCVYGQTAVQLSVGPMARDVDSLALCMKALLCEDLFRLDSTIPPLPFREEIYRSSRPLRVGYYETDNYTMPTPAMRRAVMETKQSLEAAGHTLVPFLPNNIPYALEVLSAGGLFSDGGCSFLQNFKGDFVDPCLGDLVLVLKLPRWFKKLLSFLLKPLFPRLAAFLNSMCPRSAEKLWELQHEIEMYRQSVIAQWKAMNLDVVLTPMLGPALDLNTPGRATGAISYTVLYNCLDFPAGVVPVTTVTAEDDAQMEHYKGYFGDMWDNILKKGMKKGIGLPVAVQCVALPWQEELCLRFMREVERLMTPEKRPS
Description: as §1
as §2, with “SDS-PAGE. Following gel imaging, serine hydrolase activity was determined by measuring fluorescent intensity of gel bands corresponding to MAGL, ABHD6 and FAAH using ImageJ 1.43u software.” for “SDS-PAGE.”

SMILES: O=C(OC(C(F)(F)F)C(F)(F)F)N1CCN(Cc2ccc(N3CC4CCC(C3)O4)cc2OC(F)(F)F)CC1 [Example 28, 1,1,1,3,3,3-hexafluoropropan-2-yl 4-(4-(8-oxa-3-azabicyclo[3.2.1]octan-3-yl)-2-(trifluoromethoxy)benzyl)piperazine-1-carboxylate]
inhibition at 1 µM [1]: < 25% | IC50 [1]: > 1000 nM | inhibition at 1 µM [2]: > 75% | IC50 [2]: 100 to 1000 nM | inhibition at 1 µM [3]: < 25% | IC50 [3]: > 1000 nM

SMILES: O=C(O)C1CCN(c2cc(CN3CCN(C(=O)OC(C(F)(F)F)C(F)(F)F)CC3)cc(C(F)(F)F)c2)C1 (stereo not drawn) [Example 89, 1-(3-((4-(((1,1,1,3,3,3-hexafluoropropan-2-yl)oxy)carbonyl)piperazin-1-yl)methyl)-5-(trifluoromethyl)phenyl)pyrrolidine-3-carboxylic acid]
inhibition at 1 µM [1]: > 75% | IC50 [1]: < 100 nM | inhibition at 1 µM [2]: > 75% | IC50 [2]: 100 to 1000 nM | inhibition at 1 µM [3]: < 25% | IC50 [3]: > 1000 nM

SMILES: O=C(OC(C(F)(F)F)C(F)(F)F)N1CCN(Cc2ccc(CN3CCCC3)cc2OC(F)(F)F)CC1 [Example 25, 1,1,1,3,3,3-hexafluoropropan-2-yl 4-(4-(pyrrolidin-1-ylmethyl)-2-(trifluoromethoxy)benzyl)piperazine-1-carboxylate]
inhibition at 1 µM [1]: < 25% | IC50 [1]: > 1000 nM | inhibition at 1 µM [2]: > 75% | IC50 [2]: 100 to 1000 nM | inhibition at 1 µM [3]: < 25% | IC50 [3]: > 1000 nM

SMILES: O=C(O)C(=O)c1cc(CN2CCN(C(=O)OC(C(F)(F)F)C(F)(F)F)CC2)cc(C(F)(F)F)c1 [Example 93, 2-(3-((4-(((1,1,1,3,3,3-hexafluoropropan-2-yl)oxy)carbonyl)piperazin-1-yl)methyl)-5-(trifluoromethyl)phenyl)-2-oxoacetic acid]
inhibition at 1 µM [1]: > 75% | IC50 [1]: 100 to 1000 nM | inhibition at 1 µM [2]: > 75% | IC50 [2]: < 100 nM | inhibition at 1 µM [3]: < 25% | IC50 [3]: > 1000 nM

SMILES: O=C(OC(C(F)(F)F)C(F)(F)F)N1CCN(Cc2cc(N3CCC(CO)CC3)cc(C(F)(F)F)c2)CC1 [Example 91, 1,1,1,3,3,3-hexafluoropropan-2-yl 4-(3-(4-(hydroxymethyl)piperidin-1-yl)-5-(trifluoromethyl)benzyl)piperazine-1-carboxylate]
inhibition at 1 µM [1]: > 75% | IC50 [1]: 100 to 1000 nM | inhibition at 1 µM [2]: > 75% | IC50 [2]: 100 to 1000 nM | inhibition at 1 µM [3]: < 25% | IC50 [3]: > 1000 nM

SMILES: CC(=O)NC1CCN(Cc2cccc(CN3CCN(C(=O)OC(C(F)(F)F)C(F)(F)F)CC3)c2C)CC1 [Example 11, 1,1,1,3,3,3-hexafluoropropan-2-yl 4-(3-((4-acetamidopiperidin-1-yl)methyl)-2-methylbenzyl)piperazine-1-carboxylate]
inhibition at 1 µM [1]: 25 to 75% | IC50 [1]: 100 to 1000 nM | inhibition at 1 µM [2]: > 75% | IC50 [2]: 100 to 1000 nM | inhibition at 1 µM [3]: < 25% | IC50 [3]: > 1000 nM

SMILES: O=C(OC(C(F)(F)F)C(F)(F)F)N1CCN(Cc2cc(Cl)cc(CN3CCCC3)c2)CC1 [Example 29, 1,1,1,3,3,3-hexafluoropropan-2-yl 4-(3-chloro-5-(pyrrolidin-1-ylmethyl)benzyl)piperazine-1-carboxylate]
inhibition at 1 µM [1]: < 25% | IC50 [1]: > 1000 nM | inhibition at 1 µM [2]: > 75% | IC50 [2]: 100 to 1000 nM | inhibition at 1 µM [3]: < 25% | IC50 [3]: > 1000 nM

SMILES: COc1c(CN2CCN(C(C)=O)CC2)cccc1CN1CCN(C(=O)OC(C(F)(F)F)C(F)(F)F)CC1 [Example 7, 1,1,1,3,3,3-hexafluoropropan-2-yl 4-(3-((4-acetylpiperazin-1-yl)methyl)-2-methoxybenzyl)piperazine-1-carboxylate]
inhibition at 1 µM [1]: > 75% | IC50 [1]: 100 to 1000 nM | inhibition at 1 µM [2]: > 75% | IC50 [2]: 100 to 1000 nM | inhibition at 1 µM [3]: < 25% | IC50 [3]: > 1000 nM

SMILES: O=C(OC(C(F)(F)F)C(F)(F)F)N1CCN(Cc2ccc(C(F)(F)F)cc2N2CCC3(CCCN3C3CC3)CC2)CC1 [Example 67, 1,1,1,3,3,3-hexafluoropropan-2-yl 4-(2-(1-cyclopropyl-1,8-diazaspiro[4.5]decan-8-yl)-4-(trifluoromethyl)benzyl)piperazine-1-carboxylate]
inhibition at 1 µM [1]: < 25% | IC50 [1]: > 1000 nM | inhibition at 1 µM [2]: > 75% | IC50 [2]: 100 to 1000 nM | inhibition at 1 µM [3]: < 25% | IC50 [3]: > 1000 nM

SMILES: O=C(O)C(=O)c1cc(C(F)(F)F)ccc1CN1CCN(C(=O)OC(C(F)(F)F)C(F)(F)F)CC1 [Example 76, 2-(2-((4-(((1,1,1,3,3,3-hexafluoropropan-2-yl)oxy)carbonyl)piperazin-1-yl)methyl)-5-(trifluoromethyl)phenyl)-2-oxoacetic acid]
inhibition at 1 µM [1]: > 75% | IC50 [1]: > 1000 nM | inhibition at 1 µM [2]: > 75% | IC50 [2]: < 100 nM | inhibition at 1 µM [3]: < 25% | IC50 [3]: > 1000 nM

Continued, values first:

inhibition at 1 µM [1]: > 75% | IC50 [1]: 100 to 1000 nM | inhibition at 1 µM [2]: > 75% | IC50 [2]: < 100 nM | inhibition at 1 µM [3]: < 25% | IC50 [3]: > 1000 nM
SMILES: NC(=O)C1CCN(c2cc(C(F)(F)F)ccc2CN2CCN(C(=O)OC(C(F)(F)F)C(F)(F)F)CC2)CC1 [Example 36, 1,1,1,3,3,3-hexafluoropropan-2-yl 4-(2-(4-carbamoylpiperidin-1-yl)-4-(trifluoromethyl)benzyl)piperazine-1-carboxylate]

inhibition at 1 µM [1]: > 75% | IC50 [1]: 100 to 1000 nM | inhibition at 1 µM [2]: > 75% | IC50 [2]: < 100 nM | inhibition at 1 µM [3]: < 25% | IC50 [3]: > 1000 nM
SMILES: O=C(O)C1CCN(c2cc(C(F)(F)F)ccc2CN2CCN(C(=O)OC(C(F)(F)F)C(F)(F)F)CC2)CC1 [Example 63, 1-(2-((4-(((1,1,1,3,3,3-hexafluoropropan-2-yl)oxy)carbonyl)piperazin-1-yl)methyl)-5-(trifluoromethyl)phenyl)piperidine-4-carboxylic acid]

inhibition at 1 µM [1]: < 25% | IC50 [1]: > 1000 nM | inhibition at 1 µM [2]: > 75% | IC50 [2]: 100 to 1000 nM | inhibition at 1 µM [3]: < 25% | IC50 [3]: > 1000 nM
SMILES: O=C(OC(C(F)(F)F)C(F)(F)F)N1CCN(Cc2ccc(C(F)(F)F)cc2N2CCC(C(=O)N3CCCC3)CC2)CC1 [Example 68, 1,1,1,3,3,3-hexafluoropropan-2-yl 4-(2-(4-(pyrrolidine-1-carbonyl)piperidin-1-yl)-4-(trifluoromethyl)benzyl)piperazine-1-carboxylate]

inhibition at 1 µM [1]: 25 to 75% | IC50 [1]: 100 to 1000 nM | inhibition at 1 µM [2]: > 75% | IC50 [2]: < 100 nM | inhibition at 1 µM [3]: < 25% | IC50 [3]: > 1000 nM
SMILES: O=C(O)C1CCN(c2cc(CN3CCN(C(=O)OC(C(F)(F)F)C(F)(F)F)CC3)ccc2C(F)(F)F)C1 (stereo not drawn) [Example 80, 1-(5-((4-(((1,1,1,3,3,3-hexafluoropropan-2-yl)oxy)carbonyl)piperazin-1-yl)methyl)-2-(trifluoromethyl)phenyl)pyrrolidine-3-carboxylic acid]

inhibition at 1 µM [1]: > 75% | IC50 [1]: 100 to 1000 nM | inhibition at 1 µM [2]: > 75% | IC50 [2]: < 100 nM | inhibition at 1 µM [3]: < 25% | IC50 [3]: > 1000 nM
SMILES: O=C(O)C1CCN(c2cc(C(F)(F)F)ccc2CN2CCN(C(=O)OC(C(F)(F)F)C(F)(F)F)CC2)C1 (stereo not drawn) [Example 72, 1-(2-((4-(((1,1,1,3,3,3-hexafluoropropan-2-yl)oxy)carbonyl)piperazin-1-yl)methyl)-5-(trifluoromethyl)phenyl)pyrrolidine-3-carboxylic acid]

Reference: patent US9771341B2, “Piperazine carbamates and methods of making and using same” (Abide Therapeutics, Inc., priority 2015, dated 2017)
